Details: for mass density: 100 kPa, Liquid, buoyancy

CCC[n+]1ccccc1C.O=S(=O)([N-]S(=O)(=O)C(F)(F)F)C(F)(F)F
surface tension liquid-gas [mN/m]
Details	Ring tensiometer	Wilhelmy plate
264.98 K	37.98	–
274.35 K	37.65	–
278.08 K	37.48	–
283.24 K	37.32	–
283.37 K	–	36.98
288.21 K	37.06	–
288.25 K	–	36.82
293.4 K	36.9	–
293.42 K	–	36.65
298.31 K	36.64	36.5
302.93 K	36.45	–
303.05 K	–	36.31
307.78 K	36.29	–
307.82 K	–	36.11
312.97 K	36.07	35.95
318.38 K	–	35.76
318.39 K	35.83	–
322.88 K	–	35.52
322.94 K	35.54	–
328.34 K	35.29	35.32
333.16 K	35.03	35.12
337.5 K	34.74	–
337.93 K	–	34.92
343.2 K	–	34.77
343.21 K	34.63	–
347.6 K	–	34.53
347.65 K	34.27	–
353.02 K	34.14	34.38
359.26 K	–	34.14
359.32 K	33.83	–
363.55 K	–	33.94
363.67 K	33.73	–

Details	mass density [kg/m3]
274.36 K	1487.31
278.09 K	1484.28
283.39 K	1478.78
288.24 K	1473.7
293.42 K	1468.58
298.29 K	1464.23
303.1 K	1459.95
307.9 K	1454.39
313.05 K	1449.74
318.4 K	1444.8
322.98 K	1440.18
328.44 K	1435.36
333.33 K	1430.49
338.04 K	1426.36
343.34 K	1421.49
347.7 K	1417.08
353.28 K	1412.49
359.15 K	1407.9
363.7 K	1403.29

CCC[n+]1cccc(C)c1.O=S(=O)([N-]S(=O)(=O)C(F)(F)F)C(F)(F)F
surface tension liquid-gas [mN/m]
Details	Ring tensiometer	Wilhelmy plate
264.14 K	36.35	–
268.06 K	36.23	–
273.39 K	36.1	–
273.45 K	–	35.78
278.42 K	35.88	35.59
283.19 K	35.6	–
283.2 K	–	35.41
288.5 K	35.39	–
288.67 K	–	35.22
292.92 K	35.23	–
292.99 K	–	35.06
298.42 K	35.03	–
298.44 K	–	34.88
303.1 K	34.83	–
303.12 K	–	34.68
308.03 K	34.64	–
308.04 K	–	34.53
312.72 K	–	34.29
312.75 K	34.39	–
318.22 K	34.12	–
318.25 K	–	34.08
323.19 K	–	33.91
323.23 K	33.95	–
328.11 K	33.69	33.65
333.15 K	–	33.46
333.21 K	33.43	–
339.21 K	–	33.18
339.28 K	33.18	–
342.59 K	33.03	–
342.65 K	–	33.08
347.77 K	–	32.85
347.91 K	32.78	–
352.59 K	–	32.7
352.62 K	32.49	–

Details	mass density [kg/m3]
264.25 K	1481.37
268.17 K	1476.75
273.62 K	1471.18
278.64 K	1466.69
283.23 K	1461.95
288.58 K	1456.8
293 K	1452.82
298.44 K	1448.15
303.17 K	1443.76
308.13 K	1438.23
312.76 K	1433.63
318.32 K	1428.63
323.28 K	1423.98
328.19 K	1419.2
333.31 K	1414.52
339.09 K	1409.83
342.77 K	1406.02
348.02 K	1401
352.77 K	1396.52
358.08 K	1391.47
363.28 K	1386.7

CCC[n+]1ccc(C)cc1.O=S(=O)([N-]S(=O)(=O)C(F)(F)F)C(F)(F)F
Details	mass density [kg/m3]
268.1 K	1482.1
278.71 K	1469.95
283.45 K	1465.84
288.19 K	1461.42
293.46 K	1456.03
298.38 K	1450.93
303.12 K	1446.6
308.24 K	1440.93
313.15 K	1435.96
318.2 K	1431.59
323.16 K	1426.43
328.14 K	1421.84
333.57 K	1416.94
338.25 K	1412.36
343.8 K	1407.53
348.11 K	1402.8
353.25 K	1398.13
357.74 K	1394
362.63 K	1389.16

surface tension liquid-gas [mN/m]
Details	Ring tensiometer	Wilhelmy plate
288.19 K	35.82	–
288.22 K	–	35.61
293.49 K	35.56	35.39
298.37 K	35.36	35.2
303.11 K	35.17	–
303.12 K	–	35
308.15 K	34.96	–
308.17 K	–	34.85
313.06 K	34.66	34.65
318.14 K	–	34.48
318.15 K	34.46	–
323.06 K	–	34.25
323.07 K	34.23	–
327.97 K	33.95	–
328 K	–	34.04
332.97 K	33.7	–
333.36 K	–	33.79
338.08 K	–	33.6
338.17 K	33.44	–
343.75 K	–	33.43
343.8 K	33.2	–
347.87 K	–	33.2
348.11 K	32.98	–
353.29 K	–	33.01
353.47 K	32.7	–
357.58 K	–	32.83
357.72 K	32.42	–
362.45 K	–	32.61
362.65 K	32.22	–

CCC[n+]1ccccc1.O=S(=O)([N-]S(=O)(=O)C(F)(F)F)C(F)(F)F [1-propylpyridinium bis((trifluoromethyl)sulfonyl)amide]
Details	surface tension liquid-gas [mN/m]
318.35 K, Wilhelmy plate	34.52
318.38 K, Ring tensiometer	34.67
322.86 K, Wilhelmy plate	34.29
322.89 K, Ring tensiometer	34.46
328.15 K, Wilhelmy plate	34.02
328.19 K, Ring tensiometer	34.21
333.17 K, Wilhelmy plate	33.75
333.21 K, Ring tensiometer	33.97
338 K, Wilhelmy plate	33.56
338.03 K, Ring tensiometer	33.8
343.1 K, Wilhelmy plate	33.35
343.11 K, Ring tensiometer	33.56
347.59 K, Ring tensiometer	33.34
347.63 K, Wilhelmy plate	33.13
353.31 K, Wilhelmy plate	32.87
353.34 K, Ring tensiometer	33.1
358.35 K, Wilhelmy plate	32.64
358.37 K, Ring tensiometer	32.82
362.09 K, Wilhelmy plate	32.43
362.18 K, Ring tensiometer	32.61

Details	mass density [kg/m3]
318.41 K	1468.8
323.02 K	1464.45
328.3 K	1459.61
333.28 K	1454.58
338.11 K	1450.05
343.18 K	1445.34
347.36 K	1440.68
353.35 K	1435.49
357.87 K	1430.78
362.15 K	1426.55

— the NIST ThermoML archive (doi:10.1016/j.fluid.2016.10.004)
